Test: Inhibition of L-type amino acid transporter in human LNCAP cells assessed as reduction in [3H]-L-Leucine uptake after 15 mins by liquid scintillation counting method
Assay type: cell-based

| IC50 | Compound |
| --- | --- |
| 7 µM | CC(=O)O[C@@H]1C[C@@H](C)[C@@]23C[C@@H](C[C@H](OC(=O)c4ccccc4)[C@]2(C)[C@H]1OC(=O)c1ccccc1)C(C)(C)O3 |
| 27.6 µM | C[C@@H]1CC[C@H](OC(=O)c2ccccc2)[C@@]2(C)[C@@H](OC(=O)c3ccccc3)C[C@@H]3C[C@]12OC3(C)C |
| 75.3 µM | CC(=O)O[C@@H]1C[C@@H](C)[C@@]23C[C@@H](C[C@H](OC(=O)c4ccoc4)[C@]2(C)[C@H]1OC(=O)c1ccoc1)C(C)(C)O3 |

Further lines, the compound ahead of its results:

| Compound | IC50 |
| --- | --- |
| CC(=O)O[C@@H]1C[C@@H](C)[C@@]23C[C@@H](C[C@H](OC(=O)c4ccccc4)[C@]2(C)[C@H]1OC(=O)c1ccoc1)C(C)(C)O3 | 34.5 µM |
| C[C@@H]1CC[C@H](OC(=O)c2ccoc2)[C@@]2(C)[C@@H](OC(=O)c3ccccc3)C[C@@H]3C[C@]12OC3(C)C | 19.7 µM |
| CC(=O)O[C@@H]1C[C@@H](C)[C@@]23C[C@@H]([C@@H](O)[C@H](OC(=O)c4ccccc4)[C@]2(C)[C@H]1OC(=O)c1ccoc1)C(C)(C)O3 | 98.9 µM |
| CC(=O)O[C@@H]1[C@@H]2C[C@]3(OC2(C)C)[C@H](C)C[C@@H](OC(C)=O)[C@H](OC(=O)c2ccoc2)[C@@]3(C)[C@H]1OC(=O)c1ccccc1 | 15.2 µM |
| CC(=O)O[C@@H]1C[C@@H](C)[C@@]23C[C@@H](C(=O)[C@H](OC(=O)c4ccccc4)[C@]2(C)[C@H]1OC(=O)c1ccoc1)C(C)(C)O3 | 13.4 µM |
| CC(=O)O[C@@H]1C[C@@H](C)[C@@]23C[C@@H]([C@@H](O)[C@H](OC(=O)c4ccccc4)[C@]2(C)[C@H]1OC(=O)c1ccccc1)C(C)(C)O3 | 82.3 µM |
